In ChEMBL document CHEMBL1201862, “PubChem BioAssay data set” (2004):
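Test compounds were applied to cells in 96-well plates for 48 hours at 5 doses. GI50 = concentration required for 50% inhibition of growth.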 The source made the active and inactive calls. No stated cut-off is given here; in the data, active = GI50 up to about 1.1 µM and inactive = higher.

Experiments:
Experiment in all cases: NCI tumour cell line growth inhibition, 48 h
[1] = tested on: OVCAR-8
[2] = tested on: HL-60
[3] = tested on: SK-MEL-5
[4] = tested on: SNB-75
[5] = tested on: RPMI-8226
[6] = tested on: SW-620
[7] = tested on: CAKI-1
[8] = tested on: SK-MEL-2
[9] = tested on: SN12C
[10] = tested on: Malme-3M
[11] = tested on: ACHN
[12] = tested on: A549
[13] = tested on: NCI-H23
[14] = tested on: HCT-116
[15] = tested on: KM12
[16] = tested on: NCI-H522
[17] = tested on: U-251
[18] = tested on: COLO 205
[19] = tested on: NCI-H460
[20] = tested on: NCI-H226
[21] = tested on: CCRF-CEM
[22] = tested on: EKVX
[23] = tested on: DMS-114
[24] = tested on: SF-295
[25] = tested on: HT-29
[26] = tested on: XF498
[27] = tested on: OVCAR-4
[28] = tested on: 786-0
[29] = tested on: SF-539
[30] = tested on: SR
[31] = tested on: HOP-92
[32] = tested on: KM-20L2
[33] = tested on: IGROV-1
[34] = tested on: SK-OV-3
[35] = tested on: UACC-257
[36] = tested on: TK-10
[37] = tested on: UACC-62
[38] = tested on: RXF 393
[39] = tested on: K562
[40] = tested on: DLD-1
[41] = tested on: HOP-62
[42] = tested on: SF-268
[43] = tested on: M14
[44] = tested on: M19-MEL
[45] = tested on: HCT-15
[46] = tested on: OVCAR-3
[47] = tested on: MOLT-4
[48] = tested on: LXFL 529
[49] = tested on: SK-MEL-28
[50] = tested on: HCC 2998
[51] = tested on: SNB-19
[52] = tested on: SNB-78
[53] = tested on: UO-31
[54] = tested on: OVCAR-5
[55] = tested on: A498
[56] = tested on: PC-3
[57] = tested on: NCI/ADR-RES
[58] = tested on: BT-549
[59] = tested on: MDA-MB-231
[60] = tested on: MDA-MB-435
[61] = tested on: DU-145
[62] = tested on: MCF7

C=CCC1([C@H](C)[C@@H](OC(C)=O)c2cc(OC)c(OC)c(OC)c2)C[C@@H](OC)CCC1=O (some centres not stated)
GI50 [1]: 17 µM (inactive)
GI50 [2]: 12.8 µM (inactive)
GI50 [3]: > 100 µM (inactive)
GI50 [4]: 18 µM (inactive)
GI50 [5]: 10.8 µM (inactive)
GI50 [6]: 13.7 µM (inactive)
GI50 [7]: 70.8 µM (inactive)
GI50 [8]: 15.3 µM (inactive)
GI50 [9]: 17.7 µM (inactive)
GI50 [10]: 17.2 µM (inactive)
GI50 [11]: 19.8 µM (inactive)
GI50 [12]: 27.7 µM (inactive)
GI50 [13]: 9.59 µM (inactive)
GI50 [14]: 13.1 µM (inactive)
GI50 [15]: 16.4 µM (inactive)
GI50 [16]: 11.1 µM (inactive)
GI50 [17]: 13.8 µM (inactive)
GI50 [18]: 19.1 µM (inactive)
GI50 [19]: 17.7 µM (inactive)
GI50 [20]: 22.5 µM (inactive)
GI50 [21]: 3.3 µM (inactive)
GI50 [22]: 26.2 µM (inactive)
GI50 [23]: 12.4 µM (inactive)
GI50 [24]: 16 µM (inactive)
GI50 [25]: 14.1 µM (inactive)
GI50 [26]: 17.9 µM (inactive)
GI50 [27]: 25.5 µM (inactive)
GI50 [28]: 11.7 µM (inactive)
GI50 [29]: 16.4 µM (inactive)
GI50 [30]: 22.3 µM (inactive)
GI50 [31]: 23 µM (inactive)
GI50 [32]: 12 µM (inactive)
GI50 [33]: 19.1 µM (inactive)
GI50 [34]: 59.4 µM (inactive)
GI50 [35]: > 10 µM (inactive)
GI50 [36]: 51.3 µM (inactive)
GI50 [37]: 16.1 µM (inactive)
GI50 [38]: 12.9 µM (inactive)
GI50 [39]: 16.4 µM (inactive)
GI50 [40]: 16.2 µM (inactive)
GI50 [41]: 35.7 µM (inactive)
GI50 [42]: 13.7 µM (inactive)
GI50 [43]: 15.6 µM (inactive)
GI50 [44]: 15.6 µM (inactive)
GI50 [45]: 14.2 µM
GI50 [46]: 20.7 µM (inactive)
GI50 [47]: 18.6 µM (inactive)
GI50 [48]: 14.3 µM (inactive)
GI50 [49]: 23.6 µM (inactive)

N#CC(c1ccc(Cl)cc1)c1cccc(C(C#N)c2ccc(Cl)cc2)n1 (configuration not stated)
GI50 [1]: 55.1 µM (inactive)
GI50 [2]: 12.1 µM (inactive)
GI50 [50]: 37.4 µM (inactive)
GI50 [4]: 15.9 µM (inactive)
GI50 [5]: 82 µM (inactive)
GI50 [6]: 46 µM (inactive)
GI50 [7]: 16.9 µM (inactive)
GI50 [8]: 13.7 µM (inactive)
GI50 [9]: 59.3 µM (inactive)
GI50 [10]: 30.6 µM (inactive)
GI50 [11]: 10.8 µM (inactive)
GI50 [12]: 10.6 µM (inactive)
GI50 [13]: 3.95 µM (inactive)
GI50 [15]: 17.6 µM (inactive)
GI50 [16]: 17.6 µM (inactive)
GI50 [17]: 18.1 µM (inactive)
GI50 [18]: 14.4 µM (inactive)
GI50 [51]: 26.5 µM (inactive)
GI50 [19]: 23.1 µM (inactive)
GI50 [20]: 37.4 µM (inactive)
GI50 [21]: 25.9 µM (inactive)
GI50 [22]: 25 µM (inactive)
GI50 [24]: 8.43 µM (inactive)
GI50 [25]: 19.1 µM (inactive)
GI50 [52]: 20.7 µM (inactive)
GI50 [26]: 5.13 µM (inactive)
GI50 [27]: 32.6 µM (inactive)
GI50 [53]: 4.65 µM (inactive)
GI50 [28]: 50.4 µM (inactive)
GI50 [54]: > 100 µM (inactive)
GI50 [30]: 9.31 µM (inactive)
GI50 [31]: 15.2 µM (inactive)
GI50 [32]: 38.8 µM (inactive)
GI50 [34]: 47.4 µM (inactive)
GI50 [35]: 14.1 µM (inactive)
GI50 [36]: 7.29 µM (inactive)
GI50 [37]: 14 µM (inactive)
GI50 [39]: 6.35 µM (inactive)
GI50 [40]: 37.2 µM (inactive)
GI50 [41]: 93.8 µM (inactive)
GI50 [42]: 27 µM (inactive)
GI50 [43]: 34.8 µM (inactive)
GI50 [44]: 19.6 µM (inactive)
GI50 [46]: 15.9 µM (inactive)
GI50 [55]: 2.31 µM (inactive)
GI50 [47]: 8.02 µM (inactive)
GI50 [48]: 7.78 µM (inactive)
GI50 [49]: 17 µM (inactive)

CCOC(=O)c1ccc(N[C@@H]2c3cc4c(cc3C(c3cc(OC)c(O)c(OC)c3)[C@H]3C(=O)OCC32)OCO4)cc1 (some centres not stated)
GI50 [56]: 1.61 µM (inactive)
GI50 [1]: 0.708 µM (active)
GI50 [2]: 0.0912 µM (active)
GI50 [3]: 0.505 µM (active)
GI50 [50]: 1.22 µM (inactive)
GI50 [4]: 1.21 µM (inactive)
GI50 [5]: 0.145 µM (active)
GI50 [6]: 0.475 µM (active)
GI50 [7]: 0.251 µM (active)
GI50 [8]: 2.63 µM (inactive)
GI50 [9]: 0.396 µM (active)
GI50 [10]: 0.568 µM (active)
GI50 [11]: 0.131 µM (active)
GI50 [12]: 0.0413 µM (active)
GI50 [57]: 1.42 µM (inactive)
GI50 [13]: 0.339 µM (active)
GI50 [58]: 1.64 µM (inactive)
GI50 [14]: 1.17 µM (inactive)
GI50 [15]: 1.5 µM (inactive)
GI50 [17]: 0.249 µM (active)
GI50 [18]: 3.15 µM (inactive)
GI50 [51]: 0.36 µM (active)
GI50 [19]: 0.0255 µM (active)
GI50 [20]: 0.284 µM (active)
GI50 [21]: 0.0818 µM (active)
GI50 [22]: 1.77 µM (inactive)
GI50 [23]: 0.56 µM (active)
GI50 [25]: 1.94 µM (inactive)
GI50 [52]: 4.1 µM (inactive)
GI50 [59]: 1.67 µM (inactive)
GI50 [26]: 0.726 µM (active)
GI50 [27]: 4.21 µM (inactive)
GI50 [53]: 0.769 µM (active)
GI50 [29]: 0.421 µM (active)
GI50 [54]: 1.56 µM (inactive)
GI50 [30]: 0.0474 µM (active)
GI50 [31]: 1.1 µM (active)
GI50 [60]: 3.07 µM (inactive)
GI50 [32]: 0.713 µM (active)
GI50 [33]: 3.27 µM (inactive)
GI50 [34]: 0.955 µM (active)
GI50 [35]: 3.57 µM (inactive)
GI50 [61]: 0.258 µM (active)
GI50 [37]: 0.521 µM (active)
GI50 [62]: 0.105 µM (active)
GI50 [40]: 1.44 µM (inactive)
GI50 [42]: 0.771 µM (active)
GI50 [43]: 0.679 µM (active)
GI50 [44]: 1.75 µM (inactive)
GI50 [45]: 0.379 µM
GI50 [46]: 2.85 µM (inactive)
GI50 [55]: 0.244 µM (active)
GI50 [47]: 0.0142 µM (active)
GI50 [48]: 4.55 µM (inactive)
GI50 [49]: 2.55 µM (inactive)
